“And” between values parts separate entries of the source, which are not always exact repeats. Equal values may be shown once. Read-outs that look alike come from different tables or passages of the source.
Assays:
OATP1B1 = details: read-out: IC50 for inhibition of OATP1B1-mediated transport; in vitro transporter assays; earlier studies, no reference given; cited from earlier work
CYP2C8 = details: read-out: IC50 for inhibition of CYP2C8; human liver microsomes; earlier in vitro studies, no reference given; cited from earlier work
[1] = Tolerability (adverse events), Parts A and B; format: in vivo, human
Excerpt: Tolerability measures included adverse events (AEs), serious adverse events (SAEs), clinical laboratory findings, vital signs, and concurrent medication assessments. An AE was defined as any untoward medical occurrence in a subject or clinical investigation subject, temporally associated with the use of an investigational product, whether or not considered related to the investigational product. […] The investigator or site staff was responsible for detecting, documenting, and reporting events that met the definition of an AE or SAE.

[2] = coadministration of gemfibrozil, strong CYP2C8 inhibitor; ref Johnson et al. 2013; cited from earlier work
hemoglobin levels = system: hemoglobin levels; design: method as in Holdstock et al. 2016a; details: ref Holdstock et al. 2016a, cited from earlier work
[3] = Part A clinical DDI: plasma pharmacokinetics of pioglitazone and rosuvastatin with or without 100 mg daprodustat; details: both, human, in vivo; for half-life: median elimination half-life, alone
Procedure: • Part A was an open‐label, randomized, single oral dose, two‐way cross‐over design that assessed the effects of a single, oral dose of 100 mg daprodustat on the pharmacokinetics of a single, oral dose of 15 mg pioglitazone and a single, oral dose of 10 mg rosuvastatin administered as a cocktail in healthy male and female subjects; • Part B was an open‐label, single sequence, two‐way cross‐over design to assess the effect of steady‐state trimethoprim (200 mg administered orally twice daily for 3 days) on the pharmacokinetics of a single, oral dose of 25 mg daprodustat in healthy, adult male and female subjects.
For Part A, for each of the two treatment periods, subjects remained in the Unit until 48 h postdosing, and were discharged following the last postdose assessment, if no clinically significant abnormalities were noted. Treatment periods were separated by at least a 7‐day washout. […]
Plasma analysis was performed under the management of Bioanalytical Science and Toxicokinetics, Drug Metabolism and Pharmacokinetics (DMPK), and GlaxoSmithKline (GSK). […] Samples were shipped frozen to PPD (Middleton, WI) where plasma samples were analyzed for rosuvastatin, pioglitazone, or daprodustat and predominant metabolites (GSK2391220 (M2), GSK2531403 (M3), GSK2487818 (M4), GSK2506102 (M5), GSK2531398 (M6), and GSK2531401 (M13)).
Pharmacokinetic analysis was performed using Phoenix WinNonLin® 6.3 (A Certara Company, Princeton, N.J). Pharmacokinetic parameters were determined from concentration–time data for pioglitazone, rosuvastatin, daprodustat, and predominant metabolites of daprodustat using standard noncompartmental methods.
Following loge transformation, AUC0‐∞ [defaulting to AUC0‐t if AUC0‐∞ could not be consistently determined] and C max of pioglitazone and rosuvastatin (for Part A) or daprodustat and six predominant metabolites (for Part B) were separately analyzed using a mixed‐effects model with fixed‐effect terms for treatment and period, and subject as a random effect in the model. […]

[4] = Part B clinical DDI: plasma pharmacokinetics of daprodustat and predominant metabolites with or without steady-state trimethoprim; format: in vivo, human; details: for AUC(0-t) / AUC(0-inf) / Cmax: geometric LS mean (%CV)
Procedure: For Part B, all subjects were administered daprodustat on Day 1 with pharmacokinetic blood sampling over the next 48 h. Starting the morning of Day 3, all subjects were administered 200‐mg trimethoprim twice‐daily for 3 days (i.e., through Day 5). On Day 6 subjects were administered concomitantly daprodustat with 200 mg trimethoprim in the morning, with pharmacokinetic blood sampling occurring over the next 48 h. Trimethoprim continued to be administered at 12 h postdosing on Day 6, and twice daily on Day 7.
Blood samples for PK analyses were collected on Day 1 and Day 6 predose and at 0.25, 0.5, 1, 2, 3, 4, 5, 6, 8, 12, 18, 24, and 48 h postdose.
No formal hypothesis was tested in this study.

other CYPs = details: human liver microsomes, up to 100 μmol/L; earlier in vitro studies, no reference given; cited from earlier work
[5] = design: method as in Deng et al. 2005; details: pioglitazone with gemfibrozil, strong CYP2C8 inhibitor; ref Deng et al. 2005; cited from earlier work
[6] = Part B, Regimen C (n = 20) 25 mg daprodustat, Regimen D (n = 19) 25 mg daprodustat + 200 mg trimethoprim BID for 5 days
[7] = 25 mg daprodustat + trimethoprim vs daprodustat alone
[8] = test:reference (with vs without trimethoprim)

Structure (SMILES): O=C(O)CNC(=O)C1C(=O)N(C2CCCCC2)C(=O)N(C2CCCCC2)C1=O [daprodustat]
- IC50 (OATP1B1): 6 µM
- IC50 (CYP2C8): 21 µM
- Aphthous stomatitis [1, 6]: 0 n (%)
- Catheter site phlebitis [1, 6]: 0 n (%)
- Constipation [1, 6]: 1 (5) n (%)
- Diarrhea [1, 6]: 2 (10%) n (%) and 2 (10) n (%)
- Nausea [1, 6]: 0 n (%)
- Rhinitis [1, 6]: 0 n (%)
- Tongue coated [1, 6]: 0 n (%)
- Vomiting [1, 6]: 1 (5) n (%)
- Vulvovaginal mycotic infection [1, 6]: 0 n (%)
- proportion of subjects reporting AEs ([1]; per regimen, Parts A and B, healthy subjects): 10%
- fold increase in daprodustat AUC with gemfibrozil [2]: 19 fold
- fold increase in daprodustat Cmax with gemfibrozil [2]: 4 fold
- mean hemoglobin levels (hemoglobin levels; HDD subjects switched from ESA treatment, 5 mg once daily, 4-week treatment period): maintained mean hemoglobin levels
- mean increase in hemoglobin (hemoglobin levels; NDD patients naïve to ESA treatment, oral 5 mg once daily, over 4 weeks): 1 gm/dL
- Cmax ([3]; 100 mg): ~4.5 µM
- fold increase in AUC with trimethoprim coadministration [4, 7]: 1.48 fold
- fold increase in Cmax with trimethoprim coadministration [4, 7]: 1.28 fold
- increase in plasma AUC with trimethoprim coadministration [4, 7]: 48%
- increase in plasma Cmax with trimethoprim coadministration [4, 7]: 28%
- AUC(0-t) ([4]; both sexes, human, oral, reference: 25 mg daprodustat alone, plasma, read-out: AUC0-t, Reference): 936 ng·h/mL
- AUC(0-inf) ([4]; both sexes, human, oral, reference: 25 mg daprodustat alone, plasma, read-out: AUC0-∞, Reference): 937 ng·h/mL
- Cmax ([4]; both sexes, human, oral, reference: 25 mg daprodustat alone, plasma, read-out: Cmax, Reference): 442 ng/mL
- AUC(0-t) ([4]; both sexes, human, oral, test: two 100 mg trimethoprim tablets (steady state) + 25 mg daprodustat, plasma, read-out: AUC0-t, Test): 1370 ng·h/mL
- AUC(0-inf) ([4]; both sexes, human, oral, test: two 100 mg trimethoprim tablets (steady state) + 25 mg daprodustat, plasma, read-out: AUC0-∞, Test): 1370 ng·h/mL
- Cmax ([4]; both sexes, human, oral, test: two 100 mg trimethoprim tablets (steady state) + 25 mg daprodustat, plasma, read-out: Cmax, Test): 560 ng/mL
- half-life ([4]; both sexes, human, plasma, oral, 25 mg daprodustat alone, read-out: median elimination half-life, alone (converted)): 184 min
- time of observed peak plasma levels ([4]; both treatment periods (with and without steady-state trimethoprim)): 1 h
- AUC0-t, Geometric LS mean ratio (90% CI) [4, 8]: 1.48 (1.39, 1.59)
- AUC0-∞, Geometric LS mean ratio (90% CI) [4, 8]: 1.48 (1.39, 1.59)
- Cmax, Geometric LS mean ratio (90% CI) [4, 8]: 1.28 (1.09, 1.51)
- inhibition of other CYPs (other CYPs): no inhibition was observed

Structure (SMILES): CCc1ccc(CCOc2ccc(CC3SC(=O)NC3=O)cc2)nc1 (stereo not drawn) [pioglitazone]
- half-life [3]: 421 min
- fold increase in AUC0-∞ with gemfibrozil [5]: 3.4 fold

Structure (SMILES): CC(C)c1nc(N(C)S(C)(=O)=O)nc(-c2ccc(F)cc2)c1/C=C/[C@@H](O)C[C@@H](O)CC(=O)O [rosuvastatin]
- half-life [3]: 936 min
